The source of these data is article PMC4274664, “Arabidopsis cytosolic acyl-CoA-binding proteins ACBP4, ACBP5 and ACBP6 have overlapping but distinct roles in seed development” (Bioscience Reports, 2014).

In experiment [1] the target is T1, rAtACBP4 (Arabidopsis thaliana, UniProt Q9MA55).
T1 sequence (Q9MA55 1-668): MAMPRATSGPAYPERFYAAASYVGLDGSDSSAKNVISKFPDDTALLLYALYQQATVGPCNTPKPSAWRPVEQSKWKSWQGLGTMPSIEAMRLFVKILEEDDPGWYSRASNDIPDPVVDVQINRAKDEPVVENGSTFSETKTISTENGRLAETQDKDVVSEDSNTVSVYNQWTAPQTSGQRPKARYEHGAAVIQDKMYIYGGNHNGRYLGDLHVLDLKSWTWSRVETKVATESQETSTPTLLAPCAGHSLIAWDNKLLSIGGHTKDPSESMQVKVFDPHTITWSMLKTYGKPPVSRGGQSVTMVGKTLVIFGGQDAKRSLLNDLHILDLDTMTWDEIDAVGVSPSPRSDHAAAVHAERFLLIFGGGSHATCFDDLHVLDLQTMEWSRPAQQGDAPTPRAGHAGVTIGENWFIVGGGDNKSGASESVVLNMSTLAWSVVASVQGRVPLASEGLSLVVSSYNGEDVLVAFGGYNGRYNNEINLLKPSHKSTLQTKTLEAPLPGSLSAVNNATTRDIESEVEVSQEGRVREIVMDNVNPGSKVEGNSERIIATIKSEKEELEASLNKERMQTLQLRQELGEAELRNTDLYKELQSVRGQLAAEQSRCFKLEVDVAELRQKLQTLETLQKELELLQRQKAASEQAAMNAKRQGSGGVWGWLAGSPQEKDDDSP
In words: ITC of acyl-CoA esters binding to rAtACBP4. Conditions: for n: mean of three experiments±S.D., stoichiometry of ligand-to-protein binding; for ΔG: in kcal/mol. The source says: (§1) The protein expression plasmids containing full-length AtACBP4 and AtACBP5 cDNA were previously constructed in the vector pRSETB (Invitrogen) as pAT184 and pAT185, respectively. Recombinant (His)6-AtACBP4 and (His)6-AtACBP5 proteins (rAtACBP4 and rAtACBP5) were expressed in Escherichia coli, purified and refolded according to Leung et al.. The coding sequence of AtACBP6 was amplified by PCR with primer pairs ACBP-F1 and ACBP-R1 and cloned into expression vector pEXP5-NT/TOPO (Invitrogen) to generate plasmid pEXP-ACBP6. Sequences of primers are listed in Supplementary Table S1. Recombinant (His)6-AtACBP6 (rAtACBP6) was expressed in E. coli and purified following Chye. The three recombinant proteins were dialysed in 10 mM sodium phosphate buffer (pH 7.0). Protein concentrations were determined by the standard Bradford assay (Bio-Rad).
(§2) Calorimetric titration was performed with a MicroCal iTC200 system (GE Healthcare) at 30°C. Long-chain acyl-CoA esters (Avanti Polar Lipids, Inc.) were dissolved in 10 mM sodium phosphate buffer (pH 7.0) to a final concentration of 0.25, 0.5 and 1 mM. The solution was degassed and loaded into a syringe, while 15 μM rAtACBP6, 6 μM rAtACBP4 or 60 μM rAtACBP5, was placed into the sample cell. For all titrations, 1.8 μl ligand was injected into the sample cell at 150 s intervals with a stirring speed of 1000 rpm. The titrations were completed after 20 injections. All data were collected automatically, and non-specific heat effects were estimated and corrected after saturation following the instructions of the manufacturer. Raw data were integrated and analysed using the Origin v.7.0 software accompanying the calorimeter.

In experiment [2] the target is T2, rAtACBP5 (Arabidopsis thaliana, UniProt Q8RWD9).
T2 sequence (Q8RWD9 1-648): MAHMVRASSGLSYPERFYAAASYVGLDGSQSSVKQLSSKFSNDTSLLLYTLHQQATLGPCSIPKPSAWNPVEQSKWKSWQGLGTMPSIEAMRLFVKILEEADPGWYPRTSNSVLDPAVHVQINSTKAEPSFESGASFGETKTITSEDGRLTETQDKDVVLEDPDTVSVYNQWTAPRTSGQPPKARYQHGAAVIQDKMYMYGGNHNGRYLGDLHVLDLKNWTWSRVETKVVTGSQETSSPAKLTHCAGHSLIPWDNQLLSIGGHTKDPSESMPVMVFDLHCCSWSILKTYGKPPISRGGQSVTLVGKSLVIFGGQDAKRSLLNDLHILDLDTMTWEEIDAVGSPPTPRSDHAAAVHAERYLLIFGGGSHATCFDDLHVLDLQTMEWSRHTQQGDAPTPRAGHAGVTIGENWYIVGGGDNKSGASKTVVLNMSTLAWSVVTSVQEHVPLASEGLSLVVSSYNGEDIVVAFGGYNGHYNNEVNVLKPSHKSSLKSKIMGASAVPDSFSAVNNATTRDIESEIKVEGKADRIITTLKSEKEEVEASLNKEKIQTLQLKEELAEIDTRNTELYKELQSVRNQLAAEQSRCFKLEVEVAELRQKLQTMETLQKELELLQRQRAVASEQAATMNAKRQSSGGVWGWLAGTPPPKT
In words: ITC of acyl-CoA esters binding to rAtACBP5. Conditions: for n: mean of three experiments±S.D., stoichiometry of ligand-to-protein binding; for ΔG: in kcal/mol.
Text: as §1, §2

Experiment [3] addresses T3, rAtACBP6 (Arabidopsis thaliana, UniProt P57752).
T3 construct: made in house; host or cells: Escherichia coli
T3 sequence (P57752 1-92): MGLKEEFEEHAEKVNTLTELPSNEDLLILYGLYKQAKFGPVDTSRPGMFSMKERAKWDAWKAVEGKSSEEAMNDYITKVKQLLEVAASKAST
In words: ITC of acyl-CoA esters binding to rAtACBP6. Conditions: for n: mean of three experiments±S.D., stoichiometry of ligand-to-protein binding; for ΔG: in kcal/mol.
Text: as §1, §2

The test system of experiment [4] is Arabidopsis seeds (Col-0 and acbp double/triple mutants). In words: Seed germination under ABA treatment. The experiment is classed as in vivo. The conditions noted are these: for seeds germinated / germination rate: 0.2 μM ABA, within 2 days. The method, then:
Seeds of wild-type Arabidopsis Col-0 were purchased from the ABRC (Arabidopsis Biological Resource Center). The double and triple mutants of AtACBP4, AtACBP5 and AtACBP6 were generated by crossing the respective single mutants. To sterilize Arabidopsis seeds, a solution containing 20% bleach and 0.1% (v/v) Tween 20 was used. Seeds were subjected to 20 min vigorous shaking in this solution, washed six times in distilled water, and then spread on MS (Murashige and Skoog) medium (Sigma-Aldrich) containing 2% (w/v) sucrose, and 0, 0.2 or 0.4 μM ABA (abscisic acid). After 4°C stratification for 2 days, the plates were placed under 16 h-light/8 h-dark cycles (22°C) in a tissue culture room. The rates of seed germination were scored when radicle protrusion occurred.

Where [5] appears, read: ITC, 30°C, 10 mM sodium phosphate buffer pH 7.0.
Setting [6] is: ITC, 30°C, 10 mM sodium phosphate buffer pH 7.0, mean of three±S.D.
Setting [7] is: ITC, 30°C, 10 mM sodium phosphate buffer pH 7.0, mean of three±S.D., read-out: Kd.

Read-outs that look alike come from different tables or passages of the source.

Usually Kd stands for a measure of binding affinity in units of concentration. Turning to `CCCCC/C=C\C/C=C\CCCCCCCC(=O)SCCNC(=O)CCNC(=O)[C@H](O)C(C)(C)COP(=O)(O)OP(=O)(O)OC[C@H]1O[C@@H](n2cnc3c(N)ncnc32)[C@H](O)[C@@H]1OP(=O)(O)O` [18:2, linoleoyl-CoA], the figures for the ΔS in experiment [1] (setting [5]), in experiment [2] (setting [5]) and in experiment [3] (setting [5]) were -224 cal/(mol·K), -14.7 cal/(mol·K) and -6.7 cal/(mol·K), respectively. The figures for the n in experiment [1] (setting [5]), in experiment [2] (setting [5]) and in experiment [3] (setting [5]) were 1, 1 and 1.1, respectively. The ΔH was -73.7 ± 2.6 kcal/mol in experiment [1] (setting [6]), -10.2 ± 0.2 kcal/mol in experiment [2] (setting [6]) and -12.3 ± 1.4 kcal/mol in experiment [3] (setting [6]). Further, the ΔG in experiment [1] (setting [6]) was −5.8±0.2; in experiment [2] (setting [6]), −5.8±0.0; in experiment [3] (setting [6]) it was −10.2±0.2. Further, the Kd amounted to 73.8 ± 0.3 µM in experiment [1] (setting [7]), 64.1 µM in experiment [2] (setting [7]) and 0.0364 ± 0.0049 µM in experiment [3] (setting [7]).

In the case of `CCCCCCCC/C=C\CCCCCCCC(=O)SCCNC(=O)CCNC(=O)[C@H](O)C(C)(C)COP(=O)(O)OP(=O)(O)OC[C@H]1O[C@@H](n2cnc3c(N)ncnc32)[C@H](O)[C@@H]1OP(=O)(O)O` [18:1, oleoyl-CoA], the ΔS in experiment [1] (setting [5]) was -4.3 cal/(mol·K); in experiment [2] (setting [5]) it was -1.8 cal/(mol·K); in experiment [3] (setting [5]) it was 11.4 cal/(mol·K). Also, the n in experiment [1] (setting [5]) was 2.1; in experiment [2] (setting [5]), 0.9; in experiment [3] (setting [5]), 1.9 ± 0.1. Besides, the figures for the ΔH in experiment [1] (setting [6]), in experiment [2] (setting [6]) and in experiment [3] (setting [6]) were -6.9 ± 0.1 kcal/mol, -6.2 ± 0.2 kcal/mol and -6.7 ± 3.8 kcal/mol, respectively. In addition, the values for the ΔG in experiment [1] (setting [6]), in experiment [2] (setting [6]) and in experiment [3] (setting [6]) were −5.6±0.0, −5.7±0.0 and −10.2±0.1, respectively. Besides, the figures for the Kd in experiment [1] (setting [7]), in experiment [2] (setting [7]) and in experiment [3] (setting [7]) were 95.2 µM, 74.4 ± 3.5 µM and 0.0453 ± 0.0043 µM, respectively. For the same compound, the “n (stoichiometry of ligand-to-protein binding)” value in experiment [3] (ITC) is 1.9.

`CCCCCCCCCCCCCC(=O)SCCNC(=O)CCNC(=O)[C@H](O)C(C)(C)COP(=O)(O)OP(=O)(O)OC[C@H]1O[C@@H](n2cnc3c(N)ncnc32)[C@H](O)[C@@H]1OP(=O)(O)O` [14:0]: the results for the Kd in experiment [1], in experiment [2] and in experiment [3] were 65.3 ± 22.6 µM, 41.9 ± 2.2 µM and 0.0387 ± 0.0045 µM, respectively. The ΔS in experiment [1] (setting [5]) was -158 cal/(mol·K); in experiment [2] (setting [5]) it was 7.7 cal/(mol·K); in experiment [3] (setting [5]) it was -4.6 cal/(mol·K). Moreover, the n in experiment [1] (setting [5]) was 1; in experiment [2] (setting [5]), 0.9; in experiment [3] (setting [5]), 1. Moreover, the ΔH in experiment [1] (setting [6]) is -53.5 ± 6.9 kcal/mol; in experiment [2] (setting [6]), -3.7 ± 1.2 kcal/mol; in experiment [3] (setting [6]), -11.6 ± 1.4 kcal/mol. The ΔG was −5.8±0.1 in experiment [1] (setting [6]), −6.1±0.0 in experiment [2] (setting [6]) and −10.2±0.2 in experiment [3] (setting [6]).

Take `CC/C=C\C/C=C\C/C=C\CCCCCCCC(=O)SCCNC(=O)CCNC(=O)[C@H](O)C(C)(C)COP(=O)(O)OP(=O)(O)OC[C@H]1O[C@@H](n2cnc3c(N)ncnc32)[C@H](O)[C@@H]1OP(=O)(O)O` [18:3, linolenoyl-CoA]: the results for the ΔS in experiment [1] (setting [5]), in experiment [2] (setting [5]) and in experiment [3] (setting [5]) were -300 cal/(mol·K), -7.4 cal/(mol·K) and -7.7 cal/(mol·K), respectively. For the same compound, the values for the n in experiment [1] (setting [5]), in experiment [2] (setting [5]) and in experiment [3] (setting [5]) were 1, 1.2 ± 0.1 and 1.1, respectively. Also, the ΔH was -96.2 ± 5.3 kcal/mol in experiment [1] (setting [6]), -7.8 ± 1.3 kcal/mol in experiment [2] (setting [6]) and -12.1 ± 1.3 kcal/mol in experiment [3] (setting [6]). Also, the ΔG is recorded as −5.1±0.0 in experiment [1] (setting [6]), −5.6±0.1 in experiment [2] (setting [6]) and −9.7±0.1 in experiment [3] (setting [6]). Moreover, the Kd in experiment [1] (setting [7]) amounted to 189 ± 0.5 µM; in experiment [2] (setting [7]), 92.4 ± 10.7 µM; in experiment [3] (setting [7]), 0.0841 ± 0.0029 µM.

Regarding `CCCCCCCCCCCCCCCCCC(=O)SCCNC(=O)CCNC(=O)[C@H](O)C(C)(C)COP(=O)(O)OP(=O)(O)OC[C@H]1O[C@@H](n2cnc3c(N)ncnc32)[C@H](O)[C@@H]1OP(=O)(O)O` [18:0], the ΔS in experiment [1] (setting [5]) is -0.6 cal/(mol·K); in experiment [2] (setting [5]) it was -37.2 cal/(mol·K); in experiment [3] (setting [5]) it was -6.6 cal/(mol·K). Moreover, the n stood at 1.1 ± 0.1 in experiment [1] (setting [5]), 1 in experiment [2] (setting [5]) and 1 in experiment [3] (setting [5]). For the same compound, the ΔH in experiment [1] (setting [6]) is -8.9 ± 1 kcal/mol; in experiment [2] (setting [6]), -17.4 ± 0.1 kcal/mol; in experiment [3] (setting [6]), -12 ± 2.5 kcal/mol. For the same compound, the ΔG in experiment [1] (setting [6]) is −8.7±1.0; in experiment [2] (setting [6]), −6.2±0.0; in experiment [3] (setting [6]), −10.0±0.3. Further, the Kd is 2.7 ± 1.6 µM in experiment [1] (setting [7]), 35.4 ± 1.4 µM in experiment [2] (setting [7]) and 0.0606 ± 0.0024 µM in experiment [3] (setting [7]).

Take `CC1=CC(=O)CC(C)(C)[C@@]1(O)/C=C/C(C)=C\C(=O)O` [ABA, abscisic acid]: the seeds germinated in experiment [4] (Col-0 seeds) was found to be 60%; in experiment [4] (acbp4acbp5acbp6 seeds), 19%. The germination rate in experiment [4] (acbp4acbp5 seeds) turned out to be 40%; in experiment [4] (acbp4acbp6 seeds), 32%; in experiment [4] (acbp5acbp6 seeds), 33%. Moreover, the “germination rate in comparison with Col-0” value in experiment [4] (all double and triple mutants, 0.4 μM ABA) is “lower germination rates”.
